Test results as given in US20210330683A1, “COMPOSITIONS AND METHODS FOR ENHANCED DELIVERY OF ANTIVIRAL AGENTS” (POVIVA CORP., priority 2020, published 2021).

Test: Plasma exposure (pharmacokinetics) of darunavir and efavirenz after oral administration of formulations
Conditions: for concentration at 1 h / concentration at 2 h: male, Sprague-Dawley, 10 mg/kg, average plasma concentration
Description: In this study, the exposure and distribution of darunavir and efavirenz were evaluated following oral administration in male Sprague-Dawley rats. Four cohorts of 10 rats each were used in this study. The first cohort involved darunavir using the disclosed formulations and the second cohort darunavir in a control formulation. The third cohort involved efavirenz using the disclosed formulations and the fourth cohort efavirenz in a control formulation.
Formulations were administered orally (PO) at 10 mg/kg of darunavir or efavirenz. Following dosing, blood, urine and fecal samples were collected up to 8-hour post dose (groups 1, 3, 5, and 7) or 24-hour post dose (groups 2, 4, 6, and 8). Brain tissue was collected at 8 hours or 24 hours, following the 8 hour or 24-hour urine and feces sample collection. Plasma, urine, feces, and brain tissue concentrations of the analytes were determined by LC-MS/MS. Plasma pharmacokinetic parameters were determined using WinNonlin (v8.0) software.
Plasma, urine, feces, and brain tissue samples were extracted and analyzed using the methods described as follows.
Analytical stock solutions (1.00 mg/mL of the free drug) were prepared in DMSO. Sample Homogenization Brain tissue and feces samples were homogenized with a Virsonic 100 ultrasonic homogenizer. Each brain tissue sample was first weighed, and then an appropriate volume of 20:80 methanol:water was added to make a 2 mL/gram sample. Samples were then homogenized on ice, and stored frozen until analysis. Feces samples were homogenized with 20:80 MeOH:water (8 mL/gram of tissue) prior to extraction. Standard Preparation (Plasma, Urine, and Brain) Standards were prepared in rat plasma containing sodium heparin as the anticoagulant, or in blank tissue homogenate. Working solutions were prepared in 50:50 acetonitrile:water. Working solutions were then added to blank matrix to make calibration standards to final concentrations of 1000, 500, 250, 100, 75.0, 50.0, 25.0, and 10 ng/mL. Standards were treated identically to the study samples. Sample Extraction (Plasma, Urine, Feces, and Brain) Plasma, urine, feces, and brain tissue samples were manually extracted via acetonitrile precipitation in a 96-well plate. Urine samples were diluted a minimum of 5-fold into blank rat plasma prior to extraction. Diluted urine samples were quantified against the rat plasma calibration curve. Brain and feces tissue homogenates were quantified against calibration curves prepared in matched blank tissue homogenate.

[1] = rat, plasma, po, animals given the control formulation, rats
[2] = rat, plasma, po, test animals (disclosed test formulation), rats
[3] = rat, in vivo, po, animals given the control formulation, rats

Structure (SMILES) | concentration at 1 h [1] [ng/mL] | concentration at 2 h [1] [ng/mL] | concentration at 1 h [2] [ng/mL] | concentration at 2 h [2] [ng/mL] | plasma concentration with disclosed compositions versus control formulations (rat, in vivo, po) | concentration at 1 h [3] [ng/mL] | concentration at 2 h [3] [ng/mL] | concentration at 2 h (rat, in vivo, po, test animals (disclosed test formulation), rats) [ng/mL] | plasma concentration with disclosed compositions versus control formulations (oral, rats, disclosed formulation compared with control formulation)
O=C1Nc2ccc(Cl)cc2[C@@](C#CC2CC2)(C(F)(F)F)O1 [efavirenz] | ~139 | ~117 | ~133 | ~142 | higher levels than control formulations |  |  |  | 
CC(C)CN(C[C@@H](O)[C@H](Cc1ccccc1)NC(=O)O[C@H]1CO[C@H]2OCC[C@H]21)S(=O)(=O)c1ccc(N)cc1 [darunavir] |  |  |  |  |  | ~185 | ~63 | ~153 | double the plasma concentration
